The subject of the test is 22Rv1-Enz^R. The test can be described thus: 22Rv1-Enz^R cell proliferation assay. Format: cell-based. The settings on record: human prostate cancer cell line 22Rv1-Enz^R; 6-day culture, cell media changed every 24 hours; half maximal growth inhibition constant; read-out: 22Rv1-Enz^R proliferation assay GIC50. The procedure: The human prostate cancer cell line, 22Rv1 has been reported to express a high level of AR-V7. According to one procedure, 22Rv1 is seeded at 50,000 cells/well on a 24-well plate in quadruplicate and treated with test compounds in concentrations ranging up to 20 μM for four days. Standard culture media is RPMI-1640 supplemented with 10% fetal bovine serum. The test compound initially is dissolved in DMSO at 50 mM. This stock solution is then diluted as needed for the indicated concentrations. At the end of the four-day period, cells are harvested using 1% trypsin and counted using an automated cell counter.
Selected compounds may be tested in the human prostate cancer cell line, 22Rv1-Enz^R as described in Geun Taek Lee et al., Molecular Cancer Therapeutics, 20:490-9 (2021). These procedures are similar to that described in Experimental Example 1, above, except that the assay conditions are a 6-day culture with cell media changed every 24 hours.
In the following Table (half maximal growth inhibition constant, GIC50): (*)-GIC50 2-10 μM; (++)-GIC50 1.0-2.0 μM; (+++)-GIC50<1.0 μM.

As to `O=C(COc1ccc(C2CCC(=O)NC2=O)cc1)NCCCCCCCCNC(=O)COc1c(-c2csc(N3CCOCC3)n2)ccc(F)c1F` (stereo not drawn) [Example 1, 2-(2,3-Difluoro-6-(2-morpholinothiazol-4-yl)phenoxy)-N-(8-(2-(4-(2,6-dioxopiperidin-3-yl)phenoxy)acetamido)octyl)acetamide], the IC50 was under 1000 nM. Next, `O=C1CCC(c2ccc(OCC(=O)N3CCN(CCOCCOc4c(-c5csc(N6CCOCC6)n5)ccc(F)c4F)CC3)cc2)C(=O)N1` (stereo not drawn) [Example 2, 3-(4-(2-(4-(2-(2-(2,3-Difluoro-6-(2-morpholinothiazol-4-yl)phenoxy)ethoxy)ethyl)piperazin-1-yl)-2-oxoethoxy)phenyl)piperidine-2,6-dione]: 1000 to 2000 nM; `O=C(COc1ccc(C2CCC(=O)NC2=O)cc1)NCCOCCOCCOCCOc1c(-c2csc(N3CCOCC3)n2)ccc(F)c1F` (stereo not drawn) [Example 3, N-(2-(2-(2-(2-(2,3-Difluoro-6-(2-morpholinothiazol-4-yl)phenoxy)ethoxy)ethoxy)ethoxy)ethyl)-2-(4-(2,6-dioxopiperidin-3-yl)phenoxy)acetamide]: 2000 to 10000 nM; `O=C(CCCCCCCCOc1c(-c2csc(N3CCOCC3)n2)ccc(F)c1F)NCCCCC(=O)Nc1ccc(C2CCC(=O)NC2=O)cc1` (stereo not drawn) [Example 4, 9-(2,3-difluoro-6-(2-morpholinothiazol-4-yl)phenoxy)-N-(5-((4-(2,6-dioxopiperidin-3-yl)phenyl)amino)-5-oxopentyl)nonanamide]: under 1000 nM. Under `O=C(CCCCCCCCOc1cccc(-c2csc(N3CCOCC3)n2)c1)NCCCCC(=O)Nc1ccc(C2CCC(=O)NC2=O)cc1` (stereo not drawn) [Example 6, N-(5-((4-(2,6-dioxopiperidin-3-yl)phenyl)amino)-5-oxopentyl)-9-(3-(2morpholinothiazol-4-yl)phenoxy)nonanamide] stands 2000 to 10000 nM; under `O=C(CCCCCCCCOc1ccc(-c2csc(N3CCOCC3)n2)cc1)NCCCCC(=O)Nc1ccc(C2CCC(=O)NC2=O)cc1` (stereo not drawn) [Example 7, N-(5-((4-(2,6-Dioxopiperidin-3-yl)phenyl)amino)-5-oxopentyl)-9-(4-(2morpholinothiazol-4-yl)phenoxy)nonanamide], 1000 to 2000 nM. Under `O=C1CCC(c2ccc(OCCOCCOCCn3cc(CCOc4c(-c5csc(N6CCOCC6)n5)ccc(F)c4F)nn3)cc2)C(=O)N1` (stereo not drawn) [Example 10, 3-(4-(2-(2-(2-(4-(2-(2,3-difluoro-6-(2-morpholinothiazol-4-yl)phenoxy)ethyl)-1H-1,2,3-triazol-1-yl)ethoxy)ethoxy)ethoxy)phenyl)piperidine-2,6-dione] stands 2000 to 10000 nM; under `O=C1CCC(c2ccc(OCCOCCOCCOCCn3cc(CCOc4c(-c5csc(N6CCOCC6)n5)ccc(F)c4F)nn3)cc2)C(=O)N1` (stereo not drawn) [Example 11, 3-(4-(2-(2-(2-(2-(4-(2-(2,3-difluoro-6-(2-morpholinothiazol-4-yl)phenoxy)ethyl)-1H-1,2,3-triazol-1-yl)ethoxy)ethoxy)ethoxy)ethoxy)phenyl)piperidine-2,6-dione], 1000 to 2000 nM.

As to `O=C1CCC(c2ccc(NC(=O)CCCCCCCCOc3c(-c4csc(N5CCOCC5)n4)ccc(F)c3F)cc2)C(=O)N1` (stereo not drawn) [Example 12, 9-(2,3-difluoro-6-(2-morpholinothiazol-4-yl)phenoxy)-N-(4-(2,6-dioxopiperidin-3-yl)phenyl)nonanamide], the IC50 was in the range of 2000 to 10000 nM. Under `O=C(CCCCCCCCOc1c(-c2csc(N3CCOCC3)n2)ccc(F)c1F)NCCCCCCC(=O)Nc1ccc(C2CCC(=O)NC2=O)cc1` (stereo not drawn) [Example 13, 9-(2,3-difluoro-6-(2-morpholinothiazol-4-yl)phenoxy)-N-(7-((4-(2,6-dioxopiperidin-3-yl)phenyl)amino)-7-oxoheptyl)nonanamide] stands 1000 to 2000 nM.

With `O=C(CCCCCCCCOc1c(-c2csc(N3CCOCC3)n2)ccc(F)c1F)NCCOCCOCC(=O)Nc1ccc(C2CCC(=O)NC2=O)cc1` (stereo not drawn) [Example 14, 9-(2,3-difluoro-6-(2-morpholinothiazol-4-yl)phenoxy)-N-(2-(2-(2-((4-(2,6-dioxopiperidin-3-yl)phenyl)amino)-2-oxoethoxy)ethoxy)ethyl)nonanamide], the IC50 is 1000 to 2000 nM.

Turning to `O=C(CCCCCCCCOc1c(-c2csc(N3CCOCC3)n2)ccc(F)c1F)NCCCCNC(=O)c1ccc(N2CCC(=O)NC2=O)cc1` [Example 15, N-(4-(9-(2,3-difluoro-6-(2-morpholinothiazol-4-yl)phenoxy)nonanamido)butyl)-4-(2,4-dioxotetrahydropyrimidin-1(2H)-yl)benzamide], the IC50 lay in the range of 2000 to 10000 nM.

(Values after patent US20240207415A1, “BI-FUNCTIONAL COMPOUNDS AND METHODS FOR TARGETED UBIQUITINATION OF ANDROGEN RECEPTOR” (MONTELINO THERAPEUTICS, INC., priority 2022, published 2024).)
